As a reminder, the IC50 is the concentration at which inhibition is half-maximal. As usually defined, the inhibition is the percentage by which the read-out fell short of the control.

Molecules are shown by their SMILES. The source made the active and inactive calls. No cut-off for these calls is given here.

The values that follow come from ChEMBL document CHEMBL1156422 (J Biol Chem, 2007).

The target in experiment [1] is Serine/threonine-protein kinase PLK1 (Homo sapiens, UniProt P53350). Description: Inhibition of AX-7503 binding to recombinant Plk1 by Western blot.
Experiment [2] has as its target T1, Serine/threonine-protein kinase PLK3 (Homo sapiens, UniProt Q9H4B4). The experiment in a line: Inhibition of AX-7503 binding to recombinant Plk3 expressed in HeLa cells by Western blot. It is filed as cell-based.
Target sequence in this assay (Q9H4B4 whole entry): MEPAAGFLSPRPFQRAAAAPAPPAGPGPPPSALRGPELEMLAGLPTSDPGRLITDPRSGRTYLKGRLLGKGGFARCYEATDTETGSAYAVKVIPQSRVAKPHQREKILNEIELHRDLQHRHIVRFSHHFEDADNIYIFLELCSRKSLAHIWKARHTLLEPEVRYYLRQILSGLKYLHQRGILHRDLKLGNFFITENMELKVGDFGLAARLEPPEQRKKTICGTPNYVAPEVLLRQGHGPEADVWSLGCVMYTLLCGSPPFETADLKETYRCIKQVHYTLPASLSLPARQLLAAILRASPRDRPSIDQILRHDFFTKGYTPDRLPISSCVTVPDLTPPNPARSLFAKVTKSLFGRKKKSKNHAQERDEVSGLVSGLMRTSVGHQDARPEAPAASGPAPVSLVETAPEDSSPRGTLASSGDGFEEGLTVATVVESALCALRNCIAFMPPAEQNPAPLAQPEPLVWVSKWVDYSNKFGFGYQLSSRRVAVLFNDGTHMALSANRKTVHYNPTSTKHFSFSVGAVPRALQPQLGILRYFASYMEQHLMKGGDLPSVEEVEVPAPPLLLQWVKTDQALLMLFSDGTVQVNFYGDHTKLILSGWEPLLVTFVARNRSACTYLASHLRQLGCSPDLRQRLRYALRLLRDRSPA
Experiment [3] has as its target T1, Serine/threonine-protein kinase PLK3. The experiment in a line: Inhibition of recombinant Plk3 assessed as casein substrate phosphorylation.
Target sequence in this assay (Q9H4B4 whole entry): as above
For experiment [4] the target is unchanged. The experiment in a line: Inhibition of recombinant Plk3 expressed in human GM00637 cells at 1 uM. It is filed as cell-based.
Target sequence in this assay (Q9H4B4 whole entry, looked up): as the sequence (Q9H4B4 whole entry) above
The target in experiment [5] is Serine/threonine-protein kinase PLK2 (Homo sapiens) (UniProt Q9NYY3). Description: Inhibition of AX-7503 binding to recombinant Plk2 at 1 uM by Western blot.
The target in experiment [6] is T1, Serine/threonine-protein kinase PLK3. The experiment in a line: Inhibition of recombinant Plk3 expressed in human GM00637 cells at 1 uM assessed as decrease in p53 serine-20 phosphorylation. The experiment is classed as cell-based.
Target sequence in this assay (Q9H4B4 whole entry, looked up): as the sequence (Q9H4B4 whole entry) above
The target is the same in experiment [7]. The experiment in a line: Inhibition of Plk3 in human A549 cells assessed as casein substrate phosphorylation by Western blot. It is filed as cell-based.
Target sequence in this assay (Q9H4B4 whole entry): as above

Serine/threonine-protein kinase PLK2 (Homo sapiens), sequence (Q9NYY3 whole entry, looked up): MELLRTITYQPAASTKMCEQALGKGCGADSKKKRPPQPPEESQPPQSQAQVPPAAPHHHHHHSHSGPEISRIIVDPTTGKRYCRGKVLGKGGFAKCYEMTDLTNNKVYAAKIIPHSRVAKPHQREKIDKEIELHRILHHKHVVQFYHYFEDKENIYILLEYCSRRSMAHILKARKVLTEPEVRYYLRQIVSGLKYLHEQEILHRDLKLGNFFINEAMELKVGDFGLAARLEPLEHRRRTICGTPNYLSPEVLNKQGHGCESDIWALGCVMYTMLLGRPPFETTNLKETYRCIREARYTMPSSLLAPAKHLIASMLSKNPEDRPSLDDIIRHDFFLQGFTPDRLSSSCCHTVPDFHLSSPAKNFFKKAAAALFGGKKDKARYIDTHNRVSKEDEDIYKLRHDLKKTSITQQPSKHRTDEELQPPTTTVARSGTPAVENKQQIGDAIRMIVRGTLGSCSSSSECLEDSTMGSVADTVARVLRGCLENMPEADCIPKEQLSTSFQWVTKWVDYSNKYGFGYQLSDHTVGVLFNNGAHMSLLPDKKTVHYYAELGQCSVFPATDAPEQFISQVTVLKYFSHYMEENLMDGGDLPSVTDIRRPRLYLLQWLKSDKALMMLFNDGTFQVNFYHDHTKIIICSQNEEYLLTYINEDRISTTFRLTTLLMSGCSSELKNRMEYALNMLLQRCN
Serine/threonine-protein kinase PLK1, sequence (P53350 whole entry): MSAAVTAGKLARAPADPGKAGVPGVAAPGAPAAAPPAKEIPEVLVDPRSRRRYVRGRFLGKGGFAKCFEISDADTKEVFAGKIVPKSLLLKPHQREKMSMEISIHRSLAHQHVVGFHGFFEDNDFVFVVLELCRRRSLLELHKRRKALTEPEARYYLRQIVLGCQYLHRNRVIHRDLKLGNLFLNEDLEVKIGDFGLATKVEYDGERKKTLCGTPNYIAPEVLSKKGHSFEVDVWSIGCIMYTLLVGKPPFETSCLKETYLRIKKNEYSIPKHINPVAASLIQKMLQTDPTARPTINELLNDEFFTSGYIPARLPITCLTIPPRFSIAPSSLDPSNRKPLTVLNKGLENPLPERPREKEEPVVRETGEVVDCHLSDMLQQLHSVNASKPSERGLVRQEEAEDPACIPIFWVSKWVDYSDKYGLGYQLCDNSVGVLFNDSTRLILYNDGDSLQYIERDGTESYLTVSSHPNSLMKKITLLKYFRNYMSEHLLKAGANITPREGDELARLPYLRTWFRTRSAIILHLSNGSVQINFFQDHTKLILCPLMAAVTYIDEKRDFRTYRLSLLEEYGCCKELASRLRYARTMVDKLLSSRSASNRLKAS

As to `O=c1cc(N2CCOCC2)oc2c(-c3ccccc3)cccc12` [LY-294002], the half-maximal inhibitory concentration (IC50) in experiment [1] came out at 2.1 µM; in experiment [2] it was 3 µM; in experiment [3], 88 µM.
Take `COC[C@H]1OC(=O)c2coc3c2[C@@]1(C)C1=C(C3=O)[C@@H]2CCC(=O)[C@@]2(C)C[C@H]1OC(C)=O` [WORTMANNIN]: the inhibition in experiment [4] is 75%. In addition, the result in experiment [5] and in experiment [6] was Active. For the same compound, the figures for the concentration for half-maximal inhibition (IC50) in experiment [2], in experiment [3] and in experiment [7] were 0.049 µM, 0.048 µM and 0.22 µM, respectively.
